Results as given in publication PMC12476894, “Identification of α‑Azacyclic Acetamide-Based Inhibitors of P. falciparum Na^+ Pump (PfATP4) with Fast-Killing Asexual Blood-Stage Antimalarial Activity by Phenotypic Screening” (ACS Infectious Diseases, 2025).
Converted amounts (≈) assume the structure as drawn. Where two headings read alike, the source gives them in different places.

How the values were obtained:
physchem = settings: kinetic from dmso stock
[1] = tested on: PfDd2 parasites, 2- or 3-selected bulk cultures; test: EC50 of bulk cultures after rounds of resistance selection; format: cell-based; settings: Plasmodium falciparum, read-out: bulk culture EC50
Protocol: (§1) To confirm the MOA for the α-azacyclic acetamides against P. falciparum and to obtain potential information about whether or not they bind PfATP4 at an overlapping site with that of KAE609, we undertook resistance selections using PfDd2 parasites using the published cycling drug selection method. , α-Azacyclic acetamides 2 and 3 were chosen as representative examples of the pyrrole- and indole-based series, respectively. […] Additional cycles were performed at 20 × EC50, until resistant parasites were detected based on a fold change in EC50 compared to the parental clonal Dd2 line (Table S3). Resistant parasites were detected in the 2-selections in all 4 flasks after 4 pulses and for 3-selections in 3 flasks after 5 pulses. Clonal lines were generated from each flask, and one clone per flask was selected for WGS and EC50 determination (Tables S4 and S5). WGS analysis identified two single point mutations in PfATP4 that were not present in the original clonal Dd2 parasite line (Tables and S4). P412L was found in three of four flasks containing 2-selected resistance clones, and F917L was identified in all three flasks containing 3-selected clones and in the fourth flask containing 2-selected clones (Table S4). PfATP4 mutations identified by the WGS analysis in parasite lines were verified by PCR of the pfatp4 gene, followed by Sanger sequencing (Figures S5, S6 and Table S6). An additional protein coding gene (ribosomal protein S8e) was mutated in the 2-selections. However, this mutation was identified in only one of four sequenced clones and is therefore unlikely to be related to resistance to 2 (Figure S7). All three resistant clones derived from the 3-selections harbored an identical mutation in a gene (pfcpu) encoding a conserved protein of unknown function, which was absent in the parental line (Figure S8).
(§2) Resistant Dd2 parasites were selected using a high-pressure intermittent selection protocol using a previously described method. Selections were set up using 4 flasks per compound starting with approximately 3 × 10^9 parasites per flask (80 mL per flask, 4% hematocrit, 3% parasitemia at the beginning of each pulse, mostly ring-stage parasites via previous sorbitol synchronization. Pulse 1 and 2 (48 h) were conducted at 10xEC50, and subsequent pulses were conducted at 20xEC50. Parasites cleared within 48 h under these conditions. 3-Selections used a total of 4 pulses, while 2-selections required 5 pulses before resistant parasites emerged (Table S3). Culture media was replenished daily for a week after each pulse, then every 2 days with weekly replenishment of blood. Cultures were monitored by microscopy until recrudescence. Clonal parasites were obtained from each flask by limiting dilution and maintained in drug free RPMI-1640 media prior to being analyzed for EC50 shifts. Established clonal lines were aliquoted and stored at −80 °C after suspension in Glycerolyte 57 solution (Baxter Cat no 4A7831).

[2] = tested on: Pf3D7 trophozoite-stage parasites, cytosolic pH (pHcyt); cell-based assay for ATP4 inhibition; test: P. falciparum cytosolic dose response pH assay (BCECF, with concanamycin A); settings: Plasmodium falciparum, read-out: Pf3D7 pH EC50
[3] = tested on: P. falciparum 3D7 parasites (Pf3D7); test: 72 h SYBR Green growth inhibition, ABS P. falciparum 3D7 (Phillips Lab); format: cell-based, Plasmodium falciparum; settings: Plasmodium falciparum, 3D7; 72 h SYBR Green assay; mean ± SEM (n)
PfD10 attB + yDHODH = test: 72 h SYBR Green growth inhibition, strain expressing yeast DHODH; format: cell-based; settings: Plasmodium falciparum, read-out: PfD10 attB + yDHODH EC50, 72 h SYBR Green assay
PfDd2 parasites = test: Resistance selection by drug pulses, time to recrudescence; format: cell-based, Plasmodium falciparum
Protocol: as §1, §2

[4] = tested on: P. falciparum NF54^luc parasites; test: Luciferase reporter (LR) / BRRoK assay, PfNF54^luc; format: cell-based; settings: Plasmodium falciparum, NF54, Hec50, 72 h
Dd2-B2 (PfATP4^WT) = test: Drug susceptibility assay for cross-resistance profiling (Fidock Lab), parental line; format: cell-based, Plasmodium falciparum; settings: Plasmodium falciparum, DD2, 72 h, read-out: EC50, Dd2-B2
[5] = tested on: isolated Pf3D7 trophozoites, [Na+]cyt; test: Measurement of P. falciparum cytosolic Na+ concentration (SBFI); format: cell-based, Plasmodium falciparum; settings: 1 μM
Protocol: Measurements were carried out in 96 well plates (excitation wavelengths: 340 and 380 nm; emission wavelength: 515 nm), as described previously. Fluorescence ratio values (340 nm/380 nm) were converted to [Na^+]cyt using a calibration procedure in which parasites were suspended in solutions of varying [Na^+] containing ionophores.

SMILES	solubility (physchem; pH 2, simulated gastric fluid)	solubility (physchem; pH 6.5, aqueous buffer)	EC50 [2]	EC50 [3]	EC50 (PfD10 attB + yDHODH)	Time to Recrudescence (PfDd2 parasites; Pulse 1, 10×EC50, Flasks #1-4)	Time to Recrudescence (PfDd2 parasites; Pulse 2, 10×EC50, Flasks #1-4)	Time to Recrudescence (PfDd2 parasites; Pulse 3, 20×EC50, Flasks #1-4)	EC50 [4]	EC50 (Dd2-B2 (PfATP4^WT))	increase in [Na+]cyt (in words) [5]	other results
Cc1ccnc(NC(=O)Cn2cccc2-c2nc(-c3ccccc3)cs2)c1 [compound 2, N-(4-methylpyridin-2-yl)-2-(2-(4-phenylthiazol-2-yl)-1H-pyrrol-1-yl)acetamide]	99 µM (≈ 37.1 µg/mL)	3.2 µM (≈ 1.2 µg/mL)	1600 ± 950 nM	830 ± 71 nM	990 nM	8 days	6 days	7 days	470 ± 51 nM	380 ± 31 nM	reduced response	EC50 ([1]; 2-selected Flask 1, after Pulse 3 (20×EC50)): 570 nM; EC50 ([1]; 2-selected Flask 1, after Pulse 4 (20×EC50)): 8400 nM; EC50 ([1]; 2-selected Flask 2, after Pulse 3 (20×EC50)): 580 nM; EC50 ([1]; 2-selected Flask 2, after Pulse 4 (20×EC50)): > 10000 nM; EC50 ([1]; 2-selected Flask 3, after Pulse 3 (20×EC50)): 1100 nM; EC50 ([1]; 2-selected Flask 3, after Pulse 4 (20×EC50)): > 10000 nM; EC50 ([1]; 2-selected Flask 4, after Pulse 3 (20×EC50)): 810 nM; EC50 ([1]; 2-selected Flask 4, after Pulse 4 (20×EC50)): 6600 nM; Time to Recrudescence (PfDd2 parasites; Pulse 4, 20×EC50, Flasks #1-4): 3 days; Time to Recrudescence (PfDd2 parasites; Pulse 5, 20×EC50, Flasks #1-4, after pulse): 2 days
Cc1nn(CCNC(=O)Cn2c(C)c(C#N)c3ccccc32)c(C)c1Cl [compound 3, N-(2-(4-chloro-3,5-dimethyl-1H-pyrazol-1-yl)ethyl)-2-(3-cyano-2-methyl-1H-indol-1-yl)acetamide]	25 µM (≈ 9.25 µg/mL)	25 µM (≈ 9.25 µg/mL)	1500 ± 47 nM	1100 ± 71 nM	930 nM	5 days	4 days	4 days	720 ± 3.1 nM	540 ± 54 nM	reduced response	EC50 ([1]; 3-selected Flask 1, after Pulse 2 (10×EC50)): 720 nM; EC50 ([1]; 3-selected Flask 1, after Pulse 3 (20×EC50)): 1200 nM; EC50 ([1]; 3-selected Flask 2, after Pulse 2 (10×EC50)): 840 nM; EC50 ([1]; 3-selected Flask 2, after Pulse 3 (20×EC50)): > 10000 nM; EC50 ([1]; 3-selected Flask 3, after Pulse 2 (10×EC50)): 1000 nM; EC50 ([1]; 3-selected Flask 3, after Pulse 3 (20×EC50)): > 10000 nM; EC50 ([1]; 3-selected Flask 4, after Pulse 2 (10×EC50)): 1100 nM; EC50 ([1]; 3-selected Flask 4, after Pulse 3 (20×EC50)): > 10000 nM; Time to Recrudescence (PfDd2 parasites; Pulse 4, 20×EC50, Flask #1): 6 days; Time to Recrudescence (PfDd2 parasites; Pulse 4, 20×EC50, Flasks 2 - 4): 2 days
